Measured values reported in US6900194B1, “Use of substituted 4-biarylbutyric and 5-biarylpentanoic acid derivatives as matrix metalloprotease inhibitors for the treatment of respiratory diseases” (Bayer Aktiengesellschaft, priority 1998, dated 2005).

Assays:
[1] = target: T1, MMP-12 (Macrophage Elastase) (Homo sapiens, UniProt P39900); assay: P218 quenched fluorescence assay, MMP-12; type: biochemical; settings: table 3
T1 construct: made in house; host or cells: E. coli BL21 (DE3)
Excerpt: P218 Quenched Fluorescence Assay for MMP Inhibition:
This assay is adapted from the one described by Knight et al., FEBS Letters, 296, 263-266 (1992) for MMP-3 and a related substrate. The rate of hydrolysis of the synthetic substrate H-MCA-Pro-Lys-Pro-Leu-Ala-Leu-DPA-Ala-Arg-NH2 (P218) by the respective MMPs is monitored fluorometrically, using an excitation wavelength of 340 nm and an emission wavelength of 395 nm, in the presence or absence of the test compounds. The substrate is made up initially in 100% DMSO to a concentration of 1×10^−2 M, then diluted in assay buffer to a final concentration of 20 μM. Test compounds (10 mM in DMSO) are diluted in assay buffer at an initial concentration of 0.3-1000 nM. These are diluted to a final concentration in the assay from 0.03 nM to 100 nM. The reaction is initiated by the addition of substrate at a final concentration of 20 μM. The total assay volume in a 96 well microtitre plate is 150 μl, Cleavage of the substrate between the Leu-Ala residues allows the fluorescence of the MCA group to be detected on a fluorometer (Cytofluor II) following excitation at 340 nm and emission at 395 nm. Change in fluorescence is continually monitored for a 40 min period.
The Ki's are calculated using the method described by Williams and Morrison, Methods in Enzymology, 63, 437-467 (1979) to measure Ki apparent for tight binding inhibitors, and is summarised as follows: [I]0/(1−vi/v0)=Ki apparent ×vi/v0+[E]0 [I]0 and [E]0 are inhibitor and enzyme concentrations, and vi/v0 are reaction velocities with/without inhibitor. [I]0 is equal to IC50 when vi is half v0, so that: IC50=0.5×[E]0+Ki apparent
IC50's are determined at each enzyme concentration using Xlfit software. Ki apparent is then determined graphically from the plot of IC50 versus MMP concentration, using the intercepts to estimate Ki apparent. Thus, intercept values at IC50=0 and [E]0=0 are equal to −2×Ki apparent and Ki apparent, respectively. IC50 values are calculated using % inhibition values at each enzyme concentration, ensuring data is taken from the linear part of the reaction rate curves. The Ki can then be calculated from the equation: Ki=Ki apparent/[…] where S=substrate concentration and Km=dissociation constant.
The assay conditions are modified as follows for each of the MMPs used:
MMP-12 (Macrophage Elastase)
[…] is isolated according to the following procedure: Human GenePool cDNA libraries from human lung, spleen, and brain were obtained from Invitrogen (Groningen, The Netherlands). HPLC-purified oligonucleotides were purchased from BioTez (Berlin, Germany), E. coli strain DH5α from Life Technologies (Heidelberg, Germany), strain BL21(DE3) from Novagen (Heidelberg, Germany). Pfu DNA-Polymerase and pBlueScriptII-KS(+) were from Stratagene (Heidelberg, Germany). DNA plasmid and DANN gel isolation kits were purchased from Qiagen (Hilden, Germany). All restriction enzymes and DNA modifying enzymes were ordered from New England Biolabs (Schwalbach, Germany). HiTrapQ (5 ml) was from Pharmacia Biotech (Freiburg, Germany). Vydac C4-RP HPLC columns (214TP54: 300 Å, 5 μm, 4.6×250 mm; 214TP1022: 300 Å, 10 μm, 22×250 mm) were from Promochem (Wesel, Germany). Fluorogenic substrate P218 was purchased from Polypeptide Laboratories (Wolfenbüttel, Germany). Ultrapure urea was purchased from Schwarz-Mann (Cleveland, Ohio). Ready-to-use NuPAGE 10% Bis-Tris Polyacrylamide SDS-PAGE gels and NuPAGE 20×MOPS running buffer were obtained from Novex (Frankfurt/Main, Germany) 10% AMPA and all other chemicals were from Sigma (Deisenhofen, Germany). […]

[2] = tested on: Human alveolar macrophages; settings: read-out: IC50, inhibition of MCP-1-induced trafficking of human alveolar macrophages across artificial basement membrane; Matrigel; human MCP-1 5 ng/ml; 48-98 h; + or − lipopolysaccharide
Procedure: (§1) In vitro Functional Tests • 1. Human alveolar macrophages • Human alveolar macrophages were obtained by bronchoscopy of healthy smoking volunteers. Cells were spun and resuspended at 2×10^6/ml. Trafficking of alveolar macrophages (+or −lipopolysaccharide 2.5 μg.ml) across an artificial basement membrane (Matrigel) was induced by human MCP-1 (5 ng/ml) over a 48-98 h period. […] Murine peritoneal macrophages • Murine macrophages were obtained from mice 5 days after an intraperitoneal injection of thioglycollate. Cells were spun and resuspended at 2×10^6/ml. Trafficking of peritoneal macrophages across an artificial basement membrane (Matrigel) was induced by murine MCP-1 (5 ng/ml) over a 48-98 h period. […] LPS Induced TNFα Production in Mice

[3] = tested on: Murine peritoneal macrophages; settings: read-out: IC50, inhibition of trafficking of murine peritoneal macrophages across artificial basement membrane; Matrigel; murine MCP-1 5 ng/ml; 48-98 h
Procedure: as §1

T1 sequence (P39900 106-470): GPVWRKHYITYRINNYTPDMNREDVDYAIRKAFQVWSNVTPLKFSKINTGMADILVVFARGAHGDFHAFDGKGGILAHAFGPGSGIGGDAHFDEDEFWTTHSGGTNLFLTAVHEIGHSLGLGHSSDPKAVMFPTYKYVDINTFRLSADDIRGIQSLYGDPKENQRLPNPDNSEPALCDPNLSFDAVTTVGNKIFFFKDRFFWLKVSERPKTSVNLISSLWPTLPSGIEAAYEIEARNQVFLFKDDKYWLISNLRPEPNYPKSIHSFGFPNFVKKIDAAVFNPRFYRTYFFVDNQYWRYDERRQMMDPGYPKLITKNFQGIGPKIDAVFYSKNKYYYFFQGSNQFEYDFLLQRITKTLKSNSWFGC

IC50 [1] [nM]	SMILES	IC50 [2] [nM]	IC50 [3] [nM]
1.6	O=C(CC(CCN1C(=O)c2ccccc2C1=O)C(=O)O)c1ccc(-c2ccc(OCc3ccccc3)cc2)cc1 (stereo not shown) [C-XXII]	–	–
1.7	CCCOc1ccc2c(c1)C(=O)N(CCC(CC(=O)c1ccc(-c3ccc(Cl)cc3)cc1)C(=O)O)C2=O (stereo not shown) [C-V]	–	–
2.8	CCCCCOc1ccc(-c2ccc(C(=O)CC(CCN3C(=O)c4ccccc4C3=O)C(=O)O)cc2)cc1 (stereo not shown) [C-III]	–	–
1	O=C(O)[C@H]1[C@H](CN2C(=O)c3cc4ccccc4cc3C2=O)CC[C@@H]1C(=O)c1ccc(-c2ccc(Cl)cc2)cc1 (racemic) [C-XVIII]	–	–
–	O=C(c1ccc(-c2ccc(Cl)cc2)cc1)C1CCC(CN2C(=O)c3ccccc3C2=O)C1C(=O)O (stereo not drawn) [(1α,2β,5β)-2-{[4′-chloro(1,1′-biphenyl)-4-yl]carbonyl}-5-[(1,3-dihydro-1,3-dioxo-2H-isoindol-2-yl)methyl]-cyclopentane carboxylic acid]	≤ 1000	≤ 1000
4.5	O=C(O)[C@H]1[C@H](CN2C(=O)c3cc(Cl)c([N+](=O)[O-])cc3C2=O)CC[C@@H]1C(=O)c1ccc(-c2ccc(Cl)cc2)cc1 (racemic) [C-XXX]	–	–
